Common to all, as to assay type: physicochemical
The nature of data set [1]: Mixed solvent cooling crystallization trials (solubility in six solvents). The conditions noted are these: 200 mg amorphous material; MeOH, MeCN, MEK, THF, EtOAc, TBME; solutions at 0.5 vol., 25° C., ca. 66 hours equilibration. The procedure: Amorphous (S)—N-(1-deutero-1-(3-chloro-5-fluoro-2-((2-methyl-4-(1-methyl-1H-1,2,4-triazol-5-yl)quinolin-8-yloxy)methyl)phenyl)ethyl)-2-(difluoromethoxy)acetamide, 6×200 mg, was weighed into crystallisation tubes and charged with solvents (MeOH, MeCN, MEK, THE, EtOAc and TBME) in 0.05 ml (0.25 vol.) aliquots at 25° C. […] Additional solvent (made up to 0.5 vol.) yielded thick yellow solutions. The solutions were equilibrated at 25° C. for ca. 66 hours though this had no impact on the yellow solutions.
Additional solvent was charged to each API solution up to 1 ml (5 vol.) and the solutions were heated to 40° C. and clarified. Heptane was charged in 50 μL aliquots to each solution before cooling to 25° C. over 1 hour. The volume charged and observations at 40 and 25° C. are detailed in Table 3.

Data set [2] in a line: Slow evaporative crystallisation trials (solubility observed in solvents). The protocol:
Into crystallisation tubes (5 ml vol) was charged 20 mg of amorphous (S)—N-(1-deutero-1-(3-chloro-5-fluoro-2-((2-methyl-4-(1-methyl-1H-1,2,4-triazol-5-yl)quinolin-8-yloxy)methyl)phenyl)ethyl)-2-(difluoromethoxy)acetamide. A total of 26 solvents or solvent mixtures were charged to the tubes and the solids agitated over a period of 48 hours at RT and cooled to 0° C.
Slow evaporative crystallisation trials were continued by transferring samples to smaller tapered tubes without agitation and needle bleeds fitted. Slow evaporative crystallisation was attempted with scratching at various points to help induce crystallisation.
Following two weeks, liquors remained in most cases with no evidence of crystallisation. At this point heteronuclear seeding was attempted with a very similar crystalline API source. This had no impact upon the results. The majority of test cases returned clear glasses.

A short description of data set [3]: Gravimetric Vapour Sorption (GVS). The conditions noted are these: 25° C. The protocol:
Sorption isotherms were obtained using a Hiden Isochema moisture sorption analyser (model IGAsorp), controlled by IGAsorp Systems Software V6.50.48. The sample was maintained at a constant temperature (25° C.) by the instrument controls. The humidity was controlled by mixing streams of dry and wet nitrogen, with a total flow of 250 ml.min^−1. The instrument was verified for relative humidity content by measuring three calibrated Rotronic salt solutions (10-50-88%). The weight change of the sample was monitored as a function of humidity by a microbalance (accuracy+/−0.005 mg). A defined amount of sample was placed in a tared mesh stainless steel basket under ambient conditions. A full experimental cycle typically consisted of three scans (sorption, desorption and sorption) at a constant temperature (25° C.) and 10% RH intervals over a 0-90% range (60 minutes for each humidity level).

Each structure is given as a SMILES string.

For the compound `[2H][C@@](C)(NC(=O)COC(F)F)c1cc(F)cc(Cl)c1COc1cccc2c(-c3ncnn3C)cc(C)nc12` [(S)—N-(1-deutero-1-(3-chloro-5-fluoro-2-((2-methyl-4-(1-methyl-1H-1,2,4-triazol-5-yl)quinolin-8-yloxy)methyl)phenyl)ethyl)-2-(difluoromethoxy)acetamide], the “solubility in the 6 solvents investigated” value in data set [1] was “high solubility”. The solubility in solvents entry in data set [2] (20 mg amorphous material, 26 solvents or solvent mixtures, agitated 48 hours at RT and cooled to 0° C., in the majority of solvents) is recorded as “extreme solubility”. Besides, the “solubility in solvents (continued trials)” value in data set [2] (continued slow evaporation without agitation, scratching, heteronuclear seeding, 3 weeks) is on record as “extreme solubility”.
On to `[2H][C@@](C)(NC(=O)COC(F)F)c1cc(F)cc(Cl)c1COc1cccc2c(-c3ncnn3C)cc(C)nc12` [Form A, (S)—N-(1-deutero-1-(3-chloro-5-fluoro-2-((2-methyl-4-(1-methyl-1H-1,2,4-triazol-5-yl)quinolin-8-yloxy)methyl)phenyl)ethyl)-2-(difluoromethoxy)acetamide monohydrate], for which the “GVS overall weight change” value in data set [3] (between 0 and 90% RH) is “ca. 1.9 wt %”. In addition, the GVS hysteresis in data set [3] (between 10 and 80% RH) is on record as 0.2-0.4 wt %.
